Results reported in ChEMBL document CHEMBL1201862, “PubChem BioAssay data set” (2004).
Where “and” joins values, the source holds several entries; their conditions need not be identical. Equal values may be shown once.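 In this assay, cells in 96-well plates receive the compound at five concentrations for 48 hours. Endpoints are linearly interpolated between the surrounding concentrations. GI50: concentration for 50% inhibition of growth.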 Calls of active or inactive are those of the source. Cut-off read from the data, not from the text of the source: active = GI50 up to about 1.1 µM and inactive = higher.

Experiments:
Assay in all cases: DTP human tumour cell line panel, 48 h
PC-3 = test system: PC-3
HCT-116 = test system: HCT-116
SF-268 = test system: SF-268
NCI-H226 = test system: NCI-H226
A498 = test system: A498
NCI-H23 = test system: NCI-H23
KM12 = test system: KM12
SNB-19 = test system: SNB-19
BT-549 = test system: BT-549
A549 = test system: A549
UACC-257 = test system: UACC-257
SNB-75 = test system: SNB-75
NCI-H522 = test system: NCI-H522
TK-10 = test system: TK-10
COLO 205 = test system: COLO 205
M14 = test system: M14
U-251 = test system: U-251
OVCAR-5 = test system: OVCAR-5
ACHN = test system: ACHN
RPMI-8226 = test system: RPMI-8226
UACC-62 = test system: UACC-62
HCC 2998 = test system: HCC 2998
NCI-H460 = test system: NCI-H460
T47D = test system: T47D
IGROV-1 = test system: IGROV-1
DU-145 = test system: DU-145
HOP-92 = test system: HOP-92
UO-31 = test system: UO-31
HOP-62 = test system: HOP-62
SK-MEL-28 = test system: SK-MEL-28
OVCAR-3 = test system: OVCAR-3
SF-295 = test system: SF-295
SK-MEL-5 = test system: SK-MEL-5
OVCAR-4 = test system: OVCAR-4
MDA-MB-435 = test system: MDA-MB-435
NCI/ADR-RES = test system: NCI/ADR-RES
Malme-3M = test system: Malme-3M
MCF7 = test system: MCF7
HCT-15 = test system: HCT-15
EKVX = test system: EKVX
MDA-N = test system: MDA-N
SN12C = test system: SN12C
SK-MEL-2 = test system: SK-MEL-2
786-0 = test system: 786-0
SK-OV-3 = test system: SK-OV-3
CAKI-1 = test system: CAKI-1
MDA-MB-231 = test system: MDA-MB-231
RXF 393 = test system: RXF 393
K562 = test system: K562
OVCAR-8 = test system: OVCAR-8
HT-29 = test system: HT-29
SR = test system: SR

Measured: GI50

Oc1ccc(-c2c3c(nc4c2CCc2ccc(Br)cc2-4)-c2cc(Br)ccc2CC3)cc1
18.9 µM: HCT-15
inactive: PC-3 17.9 µM | HCT-116 24.4 µM | SF-268 21.7 µM | NCI-H226 23.3 µM | A498 23.4 µM | NCI-H23 20.3 µM | KM12 19.7 µM | SNB-19 23.6 µM | BT-549 24 µM | A549 19.8 µM | UACC-257 27 µM | SNB-75 23.9 µM | NCI-H522 25.6 µM | TK-10 21.1 µM | COLO 205 17.2 µM | M14 23.9 µM | U-251 17.5 µM | OVCAR-5 18 µM | ACHN 20.7 µM | RPMI-8226 26.9 µM | UACC-62 21.3 µM | HCC 2998 20.7 µM | NCI-H460 22.5 µM | T47D 21.2 µM | IGROV-1 17 µM | DU-145 25.1 µM | HOP-92 16 µM | UO-31 18.7 µM | HOP-62 17.2 µM | SK-MEL-28 20.6 µM | OVCAR-3 15.1 µM | SF-295 16.2 µM | SK-MEL-5 20.7 µM | OVCAR-4 22.3 µM | MDA-MB-435 20 µM | NCI/ADR-RES 23 µM | Malme-3M 25.8 µM | MCF7 16.8 µM | EKVX 22 µM | MDA-N 18.6 µM | SN12C 20 µM | SK-MEL-2 16.8 µM | 786-0 18.9 µM | SK-OV-3 16.5 µM | CAKI-1 17.7 µM | MDA-MB-231 17.7 µM

O=C1N/C(=N/N=C\C(O)C(O)C(O)C(O)CO)N/C1=C/c1ccccc1 (stereo not drawn)
inactive: UACC-62 > 100 µM | NCI/ADR-RES > 100 µM and 67 µM

COC(=O)C(Cc1ccccc1)NC(=O)C(CNC(=O)OCc1ccccc1)C(=O)OCc1ccccc1 (stereo not drawn)
inactive: PC-3 58.3 µM | RXF 393 13.2 µM | HCT-116 70.3 µM and 71 µM | NCI-H226 54.8 µM and 57.5 µM | A498 > 100 µM | NCI-H23 > 100 µM | KM12 > 100 µM | SNB-19 > 100 µM | BT-549 > 100 µM | K562 > 100 µM | SNB-75 42.6 µM and 21.8 µM | OVCAR-8 > 100 µM | NCI-H522 29.4 µM and 32.2 µM | COLO 205 51.1 µM | U-251 31.3 µM and 46.7 µM | OVCAR-5 > 100 µM | RPMI-8226 > 100 µM | HCC 2998 > 100 µM | T47D 79.6 µM and 47.8 µM | HT-29 > 100 µM | IGROV-1 98.4 µM and 60.3 µM | DU-145 > 100 µM | UO-31 > 100 µM and 95.5 µM | OVCAR-3 36.6 µM and 32.3 µM | NCI/ADR-RES > 100 µM | MCF7 30.2 µM and 48.2 µM | SR > 100 µM and 56.1 µM | MDA-N > 100 µM | SN12C > 100 µM | SK-MEL-2 > 100 µM and 86.5 µM | SK-OV-3 59.7 µM | CAKI-1 48.6 µM and 64 µM | MDA-MB-231 38.7 µM and 23 µM
> 100 µM: HCT-15
